Measurements from article PMC11645656, “MRGPRX4 mediates phospho-drug associated pruritus in a humanized mouse model” (Science translational medicine, 2024).
Where “and” joins values, the source holds several entries; their conditions need not be identical. Equal values may be shown once. Where a name gives a salt, the structure may show the parent alone.

Legend:
NP2-X4+ DRG neurons = experiment: GCaMP6s calcium imaging of cultured NP2-X4+ DRG neurons; format: cell-based, mouse; conditions: 10 μM phospho-drugs; 1 mM CQ
Description: (§1) Fig. 2. Phosphate monoester prodrugs induce itch in NP2-MRGPRX4+ mice through activating NP2 primary sensory neurons. (A) Mating strategy to generate NP2-X4+ mice. (B) In situ hybridization showing MRGPRX4 transcripts (magenta) in NP2-X4+ DRG as indicated by arrowheads (left) but not in littermate control NP2-WT (right). NP2 subpopulation accounts for 5% of total DRG neurons. DAPI, blue. Scale bar, 50 μm. […]. Data are expressed as mean ± SEM. *p< 0.05, **p< 0.01 and ***p< 0.001 by two-tailed unpaired Student’s t-test. ns = no statistical significance observed. (D and E) Traces of average (top, depicted as mean ± 95% confidence interval) and individual (bottom, reflected by the heatmap) calcium activity, measured by fluorescence intensity normalized to the baseline intensity (FT/F0) over time of NP2-X4+ (D) and NP2-WT (E) DRG neurons labelled with GCaMP6s (n = 110–150 neurons pooled from 3–7 independent culture vessels from 2–4 mice in each condition). 10 μM phospho-drugs and 1 mM CQ were added as indicated by the arrowheads. Neurons with FT/F0 > 1.5 after compound application were considered a positive responder. NP2-X4+: NP2-MRGPRX4+; DRG, dorsal root ganglia; CQ: chloroquine.
The procedures were performed following previously established protocols ([15]). Murine DRGs (from both male and female) were harvested from all spinal segments and digested in dispase (5 mg/ml) / type I collagenase (1 mg/ml) enzyme mix at 37 °C for an hour. Enzyme mix was replaced with complete DH10 media (90% DMEM/F12, 10% FBS, penicillin (100 units/ml), and streptomycin (100 μg/ml)) and gently triturated with 1 ml pipette tip until the media turned cloudy without visible tissue chunks. Dissociated tissues were filtered through a 70 μm filter and spun down 1250 rpm for 5 min at RT. Supernatant was removed and the cell pellet was resuspended in complete DH10 media. Cell suspension was then added on top of poly-D-lysine- and laminin-coated coverslips and sat for 1–2 h at 37°C. Complete DH10 media supplemented with NGF (50 ng/ml) was then added into the vessel. Neurons were allowed to recover overnight at 37°C for the next-day calcium imaging experiment.
Calcium imaging data was collected with a Nikon Eclipse TE 200 microscope. Time series GCaMP6 fluorescence intensity was acquired through the FITC/GFP channel. Before the imaging, cultured neurons were washed and equilibrated in CIB for 30 min at 37°C. In each trial, compounds (as indicated in the results) were added into the imaging chamber after a 30 s baseline GCaMP6 activity was collected. […] Neurons with GCaMP6 signal rose above 50% of the baseline intensity after compound application were counted as positive responders and the percentage of responding neurons was calculated. […]

NP2-WT DRG neurons = experiment: GCaMP6s calcium imaging of cultured NP2-WT DRG neurons; format: cell-based, mouse; conditions: 10 μM phospho-drugs; 1 mM CQ
Description: as §1, with “Neurons with FT/F0 > 1.5 after compound application were considered a positive responder. NP2-X4+: NP2-MRGPRX4+; DRG, dorsal root ganglia; CQ: chloroquine.” left out
Calcium imaging data was collected with a Nikon Eclipse TE 200 microscope. Time series GCaMP6 fluorescence intensity was acquired through the FITC/GFP channel. […] Neurons with GCaMP6 signal rose above 50% of the baseline intensity after compound application were counted as positive responders and the percentage of responding neurons was calculated. […]

HTLA cells = experiment: PRESTO-Tango β-arrestin recruitment assay, parental HTLA cells without MRGPRX4 (control, fig. S1); format: cell-based
Description: Supplement NIHMS2038790-supplement-table.xlsx, sheet "fig. S1" | column: Concentration (M)

NP2-WT mice = experiment: Itch behavioral study (scratching bouts after subcutaneous nape injection) in littermate control NP2-WT mice; format: in vivo; conditions: 30 min after injection of 50 μl 10 mM into the nape, each cell one mouse
Description: Fig. 2. Phosphate monoester prodrugs induce itch in NP2-MRGPRX4+ mice through activating NP2 primary sensory neurons. (A) Mating strategy to generate NP2-X4+ mice. (B) In situ hybridization showing MRGPRX4 transcripts (magenta) in NP2-X4+ DRG as indicated by arrowheads (left) but not in littermate control NP2-WT (right). NP2 subpopulation accounts for 5% of total DRG neurons. DAPI, blue. Scale bar, 50 μm. […] . Data are expressed as mean ± SEM. *p< 0.05, **p< 0.01 and ***p< 0.001 by two-tailed unpaired Student’s t-test. ns = no statistical significance observed. (D and E) Traces of average (top, depicted as mean ± 95% confidence interval) and individual (bottom, reflected by the heatmap) calcium activity, measured by fluorescence intensity normalized to the baseline intensity (FT/F0) over time of NP2-X4+ (D) and NP2-WT (E) DRG neurons labelled with GCaMP6s (n = 110–150 neurons pooled from 3–7 independent culture vessels from 2–4 mice in each condition). 10 μM phospho-drugs and 1 mM CQ were added as indicated by the arrowheads. Neurons with FT/F0 > 1.5 after compound application were considered a positive responder. NP2-X4+: NP2-MRGPRX4+; DRG, dorsal root ganglia; CQ: chloroquine.
. All the animals used were heterozygous unless otherwise specified. NP2-X4+ and NP2-WT littermates were generated by crossing Mrgpra3-Cre to Rosa26-lsl-MRGPRX4 as detailed previously ([15]). NP2-X4+ mice were further crossed to homozygous Rosa26-lsl-GCaMP6s to obtain NP2-WT/GCaMP6s and NP2-X4+/GCaMP6s animals. A detailed mating strategy is illustrated in fig. S5. Pirt-Cre-GCaMP6s animals were acquired by crossing Pirt-Cre to homozygous Rosa26-lsl-GCaMP6s. Pirt-Cre animals were generated through homologous recombination as indicated previously ([37]). Rosa26-lsl-GCaMP6s mouse line was provided by Dr. Dwight Bergles’ lab at the Johns Hopkins School of Medicine.

WT mice = experiment: Itch behavioral study in WT mice across concentrations (fig. S4)
Description: Experimenters and subjects scoring the recorded videos were both blind to the mouse genotype and tested compounds. Behavioral tests comparing NP2-WT and NP2-X4+ scratching behavior were 6–12weeks old littermates including both genders. In brief, on the day preceding the experiment, animals were acclimated to the test chamber for at least 30 min and the experimenters performed mock injections 1–2 times in between. On the day of experiments, animals were habituated in test chambers for 10 min before receiving subcutaneous injection of 50ul compounds. Videos were recorded for 30 min after the injection. A bout of scratching was defined as a sustained scratching movement initiated by hindpaws toward the injection site (until the pause of the movement / withdrawal of the hindpaw). Scratching bouts were quantified within the 30 min record sessions.

[1] = test system: NP2-X4+ mice (MRGPRX4 in Mrgpra3+ NP2 sensory neurons); experiment: Itch behavioral study (scratching bouts after subcutaneous nape injection) in NP2-X4+ mice; format: in vivo, mouse; conditions: for Scratching bouts of individual animals: NP2-X4+, 30 min after injection of 50 μl 10 mM into the nape, each cell one mouse
[2] = vs dexamethasone; cited from earlier work
MRGPRX4 (S83) = target: T1, MRGPRX4 (S83) (Homo sapiens, UniProt Q96LA9, L83S); experiment: EC50 determination, intracellular calcium mobilization in MRGPRX4 stably expressed HEK293 cells (FLIPR Calcium 5, Flexstation-3); format: cell-based; conditions: propofol series, individual replicate values
T1 construct: expressed in transfected cells
T1 sequence (Q96LA9 whole entry L83S): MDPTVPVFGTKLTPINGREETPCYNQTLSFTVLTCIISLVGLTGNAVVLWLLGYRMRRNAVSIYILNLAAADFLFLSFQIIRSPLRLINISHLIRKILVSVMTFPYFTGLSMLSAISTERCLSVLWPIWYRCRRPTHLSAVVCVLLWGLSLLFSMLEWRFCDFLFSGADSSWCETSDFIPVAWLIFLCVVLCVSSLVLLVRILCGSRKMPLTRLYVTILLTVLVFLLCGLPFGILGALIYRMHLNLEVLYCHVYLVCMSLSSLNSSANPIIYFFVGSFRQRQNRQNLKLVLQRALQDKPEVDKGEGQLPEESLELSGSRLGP
Outline: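 HEK293 cells stably expressing receptor (parental HEK293 alongside) loaded with Calcium 5 dye in HBSS/20 mM HEPES, pH 7.4, 1 h at 37 °C, then compounds added. Response = peak minus pre-drug baseline, triplicates averaged; EC50 from 4PL fit.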

SMILES: CCN(CC)CCCC(C)Nc1ccnc2cc(Cl)ccc12 (stereo not shown) [Chloroquine]
- Calcium response of NP2-X4+ neurons (NP2-X4+ DRG neurons): responded
- Calcium response of NP2-WT neurons (NP2-WT DRG neurons): responded

SMILES: C[C@@H]1C[C@H]2[C@@H]3CCC4=CC(=O)C=C[C@]4(C)[C@@]3(F)[C@@H](O)C[C@]2(C)[C@@]1(O)C(=O)COP(=O)(O)O [Dexamethasone phosphate]
- PRESTO-Tango response (fig. S1), single replicate (HTLA cells; concentration 4.88e-7 M): 0.002254 and 0.004793 and 0.008408 and 0.006888 and 0.003935 and 0.001659
- PRESTO-Tango response (fig. S1), single replicate (HTLA cells; concentration 9.77e-7 M): 0.004343 and 0.01198 and 0.02598 and 0.007642 and 0.02244 and 0.00537
- PRESTO-Tango response (fig. S1), single replicate (HTLA cells; concentration 1.95e-6 M): 0.003939 and 0.005577 and 0.007884 and 0.006351 and 0.008709 and 0.001173
- PRESTO-Tango response (fig. S1), single replicate (HTLA cells; concentration 3.91e-6 M): 0.006644 and 0.008139 and 0.007744 and 0.01012 and 0.008517 and 0.007795
- PRESTO-Tango response (fig. S1), single replicate (HTLA cells; concentration 7.81e-6 M): 0.008709 and 0.01255 and 0.009916 and 0.01429 and 0.003964 and 0.009591
- PRESTO-Tango response (fig. S1), single replicate (HTLA cells; concentration 1.56e-5 M): 0.01013 and 0.0155 and 0.008817 and 0.01021 and 0.0162 and 0.001357
- PRESTO-Tango response (fig. S1), single replicate (HTLA cells; concentration 3.13e-5 M): 0.01293 and 0.02454 and 0.01076 and 0.01089 and 0.02171 and 0.002693
- PRESTO-Tango response (fig. S1), single replicate (HTLA cells; concentration 6.25e-5 M): 0.01139 and 0.03821 and 0.01576 and 0.0127 and 0.01288 and 0.03538
- PRESTO-Tango response (fig. S1), single replicate (HTLA cells; concentration 0.00025 M): 0.01585 and 0.06272 and 0.01054 and 0.02134 and 0.01844 and 0.04104
- PRESTO-Tango response (fig. S1), single replicate (HTLA cells; concentration 0.0005 M): 0.01737 and 0.05973 and 0.009456 and 0.02137 and 0.0304 and 0.02084
- Calcium response of NP2-X4+ neurons (NP2-X4+ DRG neurons): strong calcium transients
- Scratching bouts of individual animals (NP2-WT mice): 4 and 14 and 5 (2×) and 8 and 3 (2×) and 18 and 12 and 42
- Scratching bouts (each well represents individual mouse) (WT mice; 1 mM subcutaneous nape injection): 5 and 12 and 10 and 47
- Scratching bouts (each well represents individual mouse) (WT mice; 10 mM subcutaneous nape injection): 2 and 30 and 18 and 13
- Scratching bouts of individual animals [1]: 19 and 29 and 40 and 22 and 17 and 35 and 2 and 71 and 63 and 41
- Enhancement of aqueous solubility [2]: more than 500 fold

SMILES: CC(C)c1cccc(C(C)C)c1OS(=O)(=O)O [Propofol sulfate]
- Scratching bouts of individual animals (NP2-WT mice): 15 and 0 and 6 and 5 and 3 and 11
- Fig. 1D dose-response, calcium response at Concentration (M) (MRGPRX4 (S83); 9.76563e-7 M): -9.765 and -0.941 and -3.534 and -7.698 and -0.440 and -6.103 and -0.412 and -8.690 and -5.139
- Fig. 1D dose-response, calcium response at Concentration (M) (MRGPRX4 (S83); 1.95313e-6 M): 6.750 and 16.267 and 9.058 and 9.006 and 15.719 and 7.351 and 7.826 and 16.017 and 8.232
- Fig. 1D dose-response, calcium response at Concentration (M) (MRGPRX4 (S83); 3.90625e-6 M): 4.213 and 7.941 and 5.294 and 9.099 and 3.195 and 5.153 and 8.684 and 2.706 and 6.058
- Fig. 1D dose-response, calcium response at Concentration (M) (MRGPRX4 (S83); 7.8125e-6 M): -1.463 and -6.718 and -3.371 and -0.821 and -4.964 and -5.766 and -0.353 and -2.243 and -8.955
- Fig. 1D dose-response, calcium response at Concentration (M) (MRGPRX4 (S83); 1.5625e-5 M): -10.261 and -6.059 and -2.116 and -7.312 and -10.479 and -0.646 and -4.250 and -7.396 and -6.790
- Fig. 1D dose-response, calcium response at Concentration (M) (MRGPRX4 (S83); 3.125e-5 M): -14.578 and -1.085 and -26.180 and -14.763 and -11.464 and -15.617 and -4.490 and -19.590 and -17.764
- Fig. 1D dose-response, calcium response at Concentration (M) (MRGPRX4 (S83); 6.25e-5 M): -6.291 and -44.109 and -11.407 and -17.994 and -28.042 and -15.772 and -23.530 and -32.512 and -5.766
- Fig. 1D dose-response, calcium response at Concentration (M) (MRGPRX4 (S83); 0.00025 M): -9.210 and -19.710 and -18.950 and -19.770 and -23.073 and -5.027 and -19.240 and -15.426 and -13.204
- Fig. 1D dose-response, calcium response at Concentration (M) (MRGPRX4 (S83); 0.0005 M): -0.269 and -0.640 and -0.169 and -0.708 and -0.172 and -0.198 and -0.248 and -0.541 and -0.289
- Fig. 1D dose-response, calcium response at Concentration (M) (MRGPRX4 (S83); 0.001 M): 6.469 and 6.229 and 2.832 and 5.169 and 2.033 and 8.329 and 8.781 and 6.580 and 0.170
- Scratching / itch behavior, NP2-X4+ mice vs WT littermates ([1]; 50 μl 10 mM nape injection, 30 min): no differences in itch behavior were detected
- Scratching bouts of individual animals [1]: 4 and 14 (2×) and 2 and 12 (2×) and 11 and 42 and 6
